Measurements reported in patent US8993612B2, “Modulators of calcium release-activated calcium channel and methods for treatment of non-small cell lung cancer” (Rhizen Pharmaceuticals SA, priority 2009, dated 2015).
pIC50: −log10 of the molar value. Structures can show the parent of a compound that is named as a salt. Where two headings read alike, the source gives them in different places. Blank lines part the entries; values can stand above or below the compound they belong to.

What was measured:
[1] = tested on: NCI-H460 human non-small cell lung cancer xenografts; experiment: Anti-tumor efficacy in female Balb/c nude mice bearing NCI-H460 xenografts; format: in vivo
[2] = Body weight in the NCI-H460 xenograft study; format: in vivo; details: Balb/c nude mice
CRAC channels [3] = target: T1, CRAC channels (Homo sapiens (Human), UniProt Q96D31); experiment: In-vitro CRAC channel inhibition assay in Jurkat cells (thapsigargin-induced calcium influx); format: cell-based
T1 sequence (Q96D31 whole entry): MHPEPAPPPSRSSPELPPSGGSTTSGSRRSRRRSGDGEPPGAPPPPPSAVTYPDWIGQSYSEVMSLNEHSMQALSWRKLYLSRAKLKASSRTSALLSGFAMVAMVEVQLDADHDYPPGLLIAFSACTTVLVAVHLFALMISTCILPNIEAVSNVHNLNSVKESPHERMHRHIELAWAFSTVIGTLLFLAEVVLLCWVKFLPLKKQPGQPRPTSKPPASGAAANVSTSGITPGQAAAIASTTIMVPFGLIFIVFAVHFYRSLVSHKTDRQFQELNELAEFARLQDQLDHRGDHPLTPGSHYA
Description: Inhibition of CRAC channels was determined following thapsigargin (Sigma, Cat # T9033) induced endoplasmic calcium release in Jurkat cells. (see Yasurio Yonetoky et. al Bio. & Med. Chem. 14 (2006) 4750-4760). Cells were centrifuged and resuspended in equal volumes ° f Ca^2+ and Mg^2+ free Hanks buffer and Fluo-8 NW dye (ABD Bioquest, Inc., Sunnyvale, Calif.) loading solution at 2×10^5 cells/100 μl/well in 96-well black plate. Plate is incubated at 37° C./5% CO2 for 30 mM followed by further 15 mM incubation at room temperature. Test compounds (DMSO stocks diluted in Ca^2+ and Mg^2+ free Hanks buffer) at desired concentrations were added to the wells and incubated for […]. Thapsigargin (1 μM final concentration) was added to the wells and incubated for 15 min to inhibit the Sarco-endoplasmic reticulum Ca^2+ ATPase pump thereby depleting endoplasmic calcium and raising cytosolic calcium concentrations. Store-operated calcium entry was initiated by adding extracellular Ca^2+ to a final concentration of 1.8 mM. Fluorescence was monitored over […] on a plate reader (BMG Labtech., Germany) with excitation at 485 nm and an emission wavelength at 520 nm. Data were analyzed using GraphPad Prism. IC50 for each compound was determined based on the percent inhibition of thapsigargin-induced calcium influx into cells.

CRAC channels [4] = target: T1, CRAC channels; experiment: In-vitro CRAC channel inhibition assay in NCI-H460 cancer cell line (thapsigargin-induced calcium influx); format: cell-based; details: NCI-H460 cells; for inhibition at 1 µM: read-out: NCI-H460 Cell Ca assay % inhibition @ 1 μM; for IC50: read-out: NCI-H460 Cell Ca assay IC 50 nM
Description: Inhibition of CRAC channels was determined following thapsigargin (Sigma, Cat # T9033) induced endoplasmic calcium release in NCI-H460 cells (National Centre For Cell Science (NCCS), Pune).
Cells (30,000 per well) were plated overnight in complete RPMI medium. Medium was substituted with Ca^2+ and Mg^2+ free Hanks buffer and Fluo-8 NW dye (ABD Bioquest, Inc., Sunnyvale, Calif.) loading solution in 96-well black plate. Plate was incubated at 37° C./5% CO2 for 30 min followed by further 15 mM incubation at room temperature. Test compounds (DMSO stocks diluted in Ca^2+ and Mg^2+ free Hanks buffer) at desired concentrations were added to the wells and incubated for 15 min. Thapsigargin (1 μM final concentration) was added to the wells and incubated for 15 min to inhibit the Sarco-endoplasmic reticulum Ca^2+ ATPase pump thereby depleting endoplasmic calcium and raising cytosolic calcium concentrations. Store-operated calcium entry was initiated by adding extracellular Ca^2+ to a final concentration of 2.5 mM. Fluorescence was monitored over 30 mM on a plate reader (BMG Labtech., Germany) with excitation at 485 nm and an emission wavelength at 520 nm. Data were analyzed using GraphPad Prism. IC50 for each compound was determined based on the percent inhibition of Thapsigargin-induced calcium influx into cells.
For Methodology Refer 1B.

NCI-H460 cells [5] = experiment: In-vitro cell proliferation assay in NCI-H460 cancer cell line (MTT); format: cell-based, human; details: for pIC50: read-out: NCI-H460 Cell line assay G1 50 nM; for inhibition at 10 µM: NCI-H460, 10 μM
Description: Growth inhibition assays were carried out using 10% FBS supplemented media. Cells were seeded at a concentration of 5000 cells/well in a 96-well plate. Test compound at a concentration range from 0.01 to 10000 nM were added after 24 h. Growth was assessed using the 3-[4,5-dimethylthiazol-2-yl]-2,5-diphenyltetrazolium bromide (MTT) dye reduction test at 0 h (prior to the addition of the test compound) and 48 h after the addition of test compound. Absorbance was read on a Fluostar Optima (BMG Labtech, Germany) at a wave length of 450 nm. Data were analysed using GraphPad Prism. IC-50 for each compound was determined based on the % inhibition due to the test compound compared to the control.
For methods of cell proliferation assay, see, for example, Mosmann. T., Journal of Immunological Methods, 65(1-2), 55-63, (1983).
The effect of CRAC and/or STIM protein on the proliferation and viability of lung cancer cells was determined as follows.
For Methodology Refer 1C.

IL-2 = experiment: Inhibition of IL-2 release in human whole blood; format: cell-based; details: Concanavalin A + PMA, 20 h, read-out: IC 50 Human Whole Blood IL-2
Description: (§1) Inhibition of cytokine IL-2, IL-4, IL-5 and TNF α was determined as described below.
(§2) Freshly collected HWB was diluted with RPMI medium (1:4.5) and added to a 96-well plate. Wells were incubated with desired concentrations of the inhibitor for 15 min. Cytokine release was induced by the addition of Concanavalin A (25 μg/ml)+Phorbol Myristate Acetate (50 ng/ml) for IL-2 & TNFα or with Phytohemagglutinin (5 μg/ml) for IL-4 & IL-5 and incubated at 37° C. in an atmosphere containing […]. Supernatant was collected after 20 h (IL-2 & TNFα) or 48 h (IL-4 & IL-5) for estimation of cytokines by ELISA. Data were analysed using GraphPad Prism. IC50 values for each compound were determined based on the percent inhibition due to the test compound compared to the control.

TNFα = experiment: Inhibition of TNFα release in human whole blood; format: cell-based; details: Concanavalin A + PMA, 20 h, read-out: IC 50 Human Whole Blood TNFα
Description: as §1, §2

[6] = tested on: CRAC channels over the voltage operated channels (VOC); details: Yonetoky et al.; cited from earlier work
Orai1 = Orai1 mRNA expression in NCI-H460 cells by PCR; format: cell-based, human; details: 1 and 10 μM, qualitative PCR
Description: (§3) Orai1 and Stim1 expression in non-small cell lung cancer cell lines was confirmed by PCR (polymerase chain reaction). Briefly, 5×10^6 cells treated with desired concentrations of the test article were harvested, pelleted, and resuspended in 1 ml TRI Reagent (Sigma, St. Louis, Mo.) and total RNA was extracted as per the manufacturer's instructions. cDNA was prepared using the First Strand cDNA synthesis and amplified using the following primer pairs:
(§4) Bands were resolved by agarose gel electrophoresis and visualized using SYBR safe DNA gel stain.
(§5) Orai and Stim expressions were measured using the methodology described in Example 1 above in NCI-H460 cells but with 1 and 10 μM of compound B.

Stim1 = Stim1 mRNA expression in NCI-H460 cells by PCR; format: cell-based, human; details: 1 and 10 μM, qualitative PCR
Description: as §3, §4, §5

Stim2 = Stim2 mRNA expression in NCI-H460 cells by PCR; format: cell-based, human; details: 1 and 10 μM, qualitative PCR
Description: as §3, §4, §5

NCI-H460 cells [7] = experiment: Cytotoxicity in NCI-H460 cells (lactate dehydrogenase assay); format: cell-based, human; details: 48 h
Description: Cytotoxicity of a test compound (Compound B) was determined using a lactate dehydrogenase assay kit (Cayman Chemicals, MI) as per the manufacturer's instructions with some minor modifications. Briefly, 20,000 cells/well in complete RPMI-1640 media were seeded in a 96-well tissue culture plate and incubated overnight at 37° C. and 5% CO2. The test compound was added to the wells in triplicate at the desired concentrations. Doxorubicin and/or 1% Triton-X were used as a positive control. After 48 h, the media was removed and assayed for lactate dehydrogenase in a colorimetric assay. Optical density was measured on a microplate reader (BMG Labtech., Germany) at 490 nM. Data were analyzed using Graphpad Prism (Graphpad software; San Diego Calif.).

[8] = 30 mg/kg orally BID for 15 days

Compound: CC(=O)O[C@H]1C(=O)[C@@]2(C)[C@H]([C@H](OC(=O)c3ccccc3)[C@]3(O)C[C@H](OC(=O)[C@H](O)[C@@H](NC(=O)c4ccccc4)c4ccccc4)C(C)=C1C3(C)C)[C@]1(OC(C)=O)CO[C@@H]1C[C@@H]2O [taxol, Paclitaxel, reference compound]
reduction in tumor growth ([1]; intravenous administration): 36%
change in body weight ([2]; intravenous administration): significant reduction

inhibition at 1 µM (CRAC channels [3]; 1 uM): 100%
inhibition at 1 µM (CRAC channels [4]): 100%
pIC50 (NCI-H460 cells [5]; Homo sapiens, NCI-H460, 48 h): 6.58
Compound: O=C(Nc1ccc(-n2nc(C3CC3)cc2C2CC2)cc1)c1ccc2ncccc2c1 [Example 3, N-[4-(3,5-dicyclopropyl-1H-pyrazol-1-yl)phenyl]quinoline-6-carboxamide hydrochloride]

pIC50 (CRAC channels [3]): 6.74
inhibition at 1 µM (CRAC channels [3]; 1 uM): 78%
inhibition at 1 µM (CRAC channels [4]): 91.1%
pIC50 (IL-2): 6.99
pIC50 (TNFα): 6.83
Compound: O=C(Nc1ccc(-n2nc(C3CC3)cc2C2CC2)cc1)c1ccc2nn[nH]c2c1 [Example 2, N-[4-(3,5-dicyclopropyl-1H-pyrazol-1-yl)phenyl]-1H-benzo[d][1,2,3]triazole-6-carboxamide]
inhibition at 10 µM (NCI-H460 cells [5]; Homo sapiens, 48 h): 34%

inhibition at 1 µM (CRAC channels [3]; 1 uM): 69.5%
inhibition at 1 µM (CRAC channels [4]): 100%
IC50 (CRAC channels [4]): < 200 nM
pIC50 (NCI-H460 cells [5]; 48 h): 6.83
pIC50 (NCI-H460 cells [5]; Homo sapiens, NCI-H460, 48 h): > 6.70
Compound: O=C(Cn1cnc2ccccc21)Nc1ccc(-n2nc(C(F)(F)F)cc2C2CC2)cc1 [Example 19, 2-(1H-benzo[d]imidazol-1-yl)-N-{4-[5-cyclopropyl-3-(trifluoromethyl)-1H-pyrazol-1-yl]phenyl}acetamide]
inhibition at 1 µM (NCI-H460 cells [5]; Homo sapiens, NCI-H460, 1 uM, 48 h): 100%
inhibition at 10 µM (NCI-H460 cells [5]; Homo sapiens, 48 h): 83.6%
reduction in tumor growth [1, 8]: 32%
change in body weight [2, 8]: without any significant change

inhibition at 1 µM (CRAC channels [3]; 1 uM): 100%
inhibition at 1 µM (CRAC channels [4]): 98.1%
pIC50 (NCI-H460 cells [5]; Homo sapiens, NCI-H460, 48 h): 6.45
pIC50 (IL-2): 6.90
pIC50 (TNFα): 6.93
Compound: O=C(Cc1ccc2ncccc2c1)Nc1ccc(-n2nc(C(F)(F)F)cc2C2CC2)cc1 [Example 27, N-{4-[5-cyclopropyl-3-(trifluoromethyl)-1H-pyrazol-1-yl]phenyl}-2-(quinolin-6-yl)acetamide Hydrochloride]

pIC50 (CRAC channels [3]): 7.29
inhibition at 1 µM (CRAC channels [3]; 1 uM): 94.6%
pIC50 (IL-2): 7.28
pIC50 (TNFα): 6.78
Compound: O=C(Cn1nnc2ccccc21)Nc1ccc(-n2nc(C3CC3)cc2C2CC2)cc1 [Example 6, 2-(1H-benzo[d][1,2,3]triazol-1-yl)-N-[4-(3,5-dicyclopropyl-1H-pyrazol-1-yl)phenyl]acetamide]

Compound: Cc1nnsc1C(=O)Nc1ccc(-n2nc(C(F)(F)F)cc2C(F)(F)F)cc1 [YM-58483]
selective index for CRAC channels over VOC [6]: 31

% inhibition (1 uM) (CRAC channels [3]; 1 uM): 100%
IC50 (CRAC channels [4]): 72.7 nM
Compound: Cl.O=C(Cc1ccc2ncccc2c1)Nc1ccc(-n2nc(C3CC3)cc2C2CC2)cc1 [Example 10, N-[4-(3,5-dicyclopropyl-1H-pyrazol-1-yl)phenyl]-2-(quinolin-6-yl)acetamide hydrochloride]

inhibition at 1 µM (CRAC channels [3]; 1 uM): 85%
inhibition at 1 µM (CRAC channels [4]): 80.7%
Compound: O=C(Nc1ccc(-n2nc(C3CC3)cc2C2CC2)cc1)c1ccc2nccnc2c1 [Example 4, N-[4-(3,5-dicyclopropyl-1H-pyrazol-1-yl)phenyl]quinoxaline-6-carboxamide]
inhibition at 10 µM (NCI-H460 cells [5]; Homo sapiens, 48 h): 41%

inhibition at 1 µM (CRAC channels [3]; 1 uM): 100%
pIC50 (NCI-H460 cells [5]; Homo sapiens, NCI-H460, 48 h): 6.57
Compound: O=C(Cc1ccc2ncccc2c1)Nc1ccc(-n2nc(C3CC3)cc2C2CC2)cc1 [Example 9, N-[4-(3,5-dicyclopropyl-1H-pyrazol-1-yl)phenyl]-2-(quinolin-6-yl)acetamide]
mRNA expression of Orai1 (Orai1): significantly reduced
mRNA expression of Stim1 (Stim1): significantly reduced
mRNA expression of Stim2 (Stim2): significantly reduced
Cytotoxicity (lactate dehydrogenase in the media) (NCI-H460 cells [7]): not cytotoxic

inhibition at 1 µM (CRAC channels [3]; 1 uM): 94%
inhibition at 1 µM (CRAC channels [4]): 100%
pIC50 (NCI-H460 cells [5]; Homo sapiens, NCI-H460, 48 h): 6.15
Compound: O=C(Nc1ccc(-n2nc(C(F)(F)F)cc2C2CC2)cc1)c1ccc2ncccc2c1 [Example 17, N-{4-[5-cyclopropyl-3-(trifluoromethyl)-1H-pyrazol-1-yl]phenyl}quinoline-6-carboxamide hydrochloride]

pIC50 (CRAC channels [3]): 6.42
inhibition at 1 µM (CRAC channels [3]; 1 uM): 88.5%
IC50 (CRAC channels [4]): 79.9 nM
pIC50 (NCI-H460 cells [5]; Homo sapiens, NCI-H460, 48 h): 6.75
Compound: O=C(Cn1cnc2ccccc21)Nc1ccc(-n2nc(C3CC3)cc2C2CC2)cc1 [Example 5, 2-(1H-benzo[d]imidazol-1-yl)-N-[4-(3,5-dicyclopropyl-1H-pyrazol-1-yl)phenyl]acetamide]
